Values of other authors, collected in US6172066A, “Dihydropyrimidines and uses thereof” (Synaptic Pharmaceutical Corporation, priority 1997, dated 2001).
Like-named read-outs stand apart in the source and are kept apart here.

Legend:
[1] = in addition to its antihypertensive effects; cited from earlier work
[2] = cited from earlier work

Compound	side effects of clonidine [1]	side effects in BPH treatment ([2]; patients with BPH)	usefulness in treating BPH ([2]; patients with BPH)	side effects in BPH treatment ([2]; in vivo)
Clc1cccc(Cl)c1N=C1NCCN1 [clonidine]	dry mouth and sedation			
COc1cc2nc(N3CCN(C(=O)C4CCCO4)CC3)nc(N)c2cc1OC (stereo not shown) [terazosin]		untoward side effects	useful for treating BPH	
CC(COc1ccccc1)N(CCCl)Cc1ccccc1 (stereo not shown) [phenoxybenzamine]		significant side effects such as dizziness and asthenia	useful in relieving the symptoms of BPH	
COc1cc2nc(N3CCN(C(=O)c4ccco4)CC3)nc(N)c2cc1OC [prazosin]			useful for treating BPH	untoward side effects
